Reference: patent publication US8999935B2, “Treatment of osteoporosis in peri- and post-menopausal women with hepcidin” (New York University, priority 2009, dated 2015)

What was measured:
[1] = system: C2C12 cells; test: C2C12 cell proliferation; type: cell-based, mouse; details: 3 and 5 days
Protocol: To investigate whether increased iron levels affect the balance between bone formation and bone resorption, mouse osteoblasts C2C12 and osteoclasts Raw 264.7 cells were cultured in the two distinct media. […] In other experiments, the iron chelator deferoxamine (DFO), promoted alkaline phosphatase production, whereas ferritin diminished it. […] To further search how increased iron affect osteoblasts, C2C12 cells were grown in the presence of E2 or iron over a period of 3 and 5 days. Cell proliferation was then measured.

[2] = system: mouse osteoblast C2C12 cells; test: Alkaline phosphatase (osteoblast differentiation) in C2C12 cells; type: cell-based
Protocol: FIGS. 18A-F show differences in alkaline phosphates (ALP) activities in mouse osteoblast C2C12 cells grown in medium only (FIG. 18A), with bone morphorgenetic protein-2 (BMP-2) (FIG. 18B), under the pre-menopausal (FIG. 18C), post-menopausal (FIG. 18D), with ferritin (FIG. 18E), and with deferoxamine (DFO) (FIG. 18F). DFO, an iron chelator, (10 μM) or ferritin alone (20 ng/mL) was used in the presence of BMP-2 at 50 ng/ml.
Due to the deficit of appropriate animal models that recapitulate estrogen and iron conditions in vivo, and the inherent difficulty of eliminating confounding variables with study in human subjects, applicants developed two cell culture models to test whether increase in body iron contributes to menopausal symptoms and diseases (FIG. 4). The concentration of 17β-estradiol (E2) were set at levels equivalent to breast tissue levels under pre-menopausal conditions (Parl F. F., “Estrogens, Estrogen Receptor and Breast Cancer,” Oxford: IOS Press, (2000), which is hereby incorporated by reference in its entirety). Ferritin levels were equal to 10% serum, given that the physiological upper limit of serum ferritin is 200 ng/ml. […]
To investigate whether increased iron levels affect the balance between bone formation and bone resorption, mouse osteoblasts C2C12 and osteoclasts Raw 264.7 cells were cultured in the two distinct media. […] Cell proliferation was then measured.

[3] = system: MCF-7 cells; test: VEGF formation in MCF-7 cell cultures; type: cell-based; details: 24-hr treatment
Source text: Due to the deficit of appropriate animal models that recapitulate estrogen and iron conditions in vivo, and the inherent difficulty of eliminating confounding variables with study in human subjects, applicants developed two cell culture models to test whether increase in body iron contributes to menopausal symptoms and diseases (FIG. 4). The concentration of 17β-estradiol (E2) were set at levels equivalent to breast tissue levels under pre-menopausal conditions (Parl F. F., “Estrogens, Estrogen Receptor and Breast Cancer,” Oxford: IOS Press, (2000), which is hereby incorporated by reference in its entirety). Ferritin levels were equal to 10% serum, given that the physiological upper limit of serum ferritin is 200 ng/ml. Twenty ng/ml of ferritin was used in the culture media. Transferrin was added in its wholly unsaturated form (apo-transferrin), or its fully 100% iron saturated (holo-transferrin), at 5 μg/ml, to the pre- and post-menopausal conditions, respectively. Serum-free alpha minimum essential medium (α-MEM) was used as the base medium for breast cancer MCF-7 cells, osteoblast progenitor C2C12 cells, and osteoclast progenitor Raw 264.7 cells. MCF-7 was supplemented with selenium (5 ng/ml) and insulin (5 μg/ml). C2C12 and Raw 264.7 cells were supplemented with bone morphorgenetic protein-2 (BMP-2) and receptor activator of nuclear factor kappa B ligand (RANKL) to stimulate their differentiation and maturation to ostoeblasts and osteoclasts, respectively. Epilife® basal medium was used for the culture of primary normal human epidermal keratinocytes (NHEK) cells.
E2, transferrin, and ferritin were analyzed separately in MCF-7 cell cultures to determine their relative contribution to alterations in VEGF levels.

[4] = mice, single 50 μg intraperitoneal injection, for 3 days; cited from earlier work
[5] = system: CYP1B1; test: CYP1B1 mRNA induction in MCF-12A cells; type: cell-based, human; details: ferritin at as little as 10 ng/ml
Source text: (§1) It was also investigated whether increased iron as a result of menopause affects estrogen metabolisms. It is known that 95% of serum E2 in premenopausal women is derived from ovarian secretion and subsequently distributed through the bloodstream in an endocrine fashion. Almost all of the circulating E2 in postmenopausal women is from extragonadal conversion of C19 steroid precursors, principally weak adrenal androgens (FIG. 26). The conversion occurs locally in tissues such as adipose and bone marrow and E2 acts in a paracrine fashion. […] The first step in the metabolism of estrogens is the hydroxylation catalyzed by cytochrome P450 enzymes such as CYP1A1 and CYP1B1, leading to the formation of 2-hydroxyl-E2 (2-OH-E2) and 4-OH-E2, respectively (Tsuchiya et al., “Cytochrome P450-mediated Metabolism of Estrogens and Its Regulation In Humans,” Cancer Leu 227, 115-24 (2005), which is hereby incorporated by reference in its entirety).

[6] = system: CYP1A1; test: CYP1A1 mRNA induction in MCF-12A cells; type: cell-based, human; details: ferritin at as little as 10 ng/ml
Source text: as §1

[7] = system: CYP19A1; test: CYP19A1 mRNA induction in MCF-12A cells; type: cell-based, human; details: ferritin at as little as 10 ng/ml
Source text: as §1

[8] = Effects of hepcidin on mice: serum iron and transferrin saturation after 8 weeks of i.p. treatment; type: in vivo; details: 1.5 mg/kg i.p. twice a week for 8 weeks, versus control mice or mice treated with DFO
Protocol: Human body has many ways to absorb, transfer, and store iron but has no effective ways to excrete it (Andrews N. C., “Disorders of Iron Metabolism,” N Engl J Med 341:1986-95 (1999), which is hereby incorporated by reference in its entirety). Menstruation, which can get rid of iron in young premenopausal women, is not optional in older postmenopausal women. Therefore, hepcidin and deferoxamine (DFO), a FDA-approved iron chelator, were tested to see whether hepcidin or DFO can inhibit iron absorption and decrease body iron levels. After overnight fasting, mice were injected intra-peritoneally (i.p.), twice a week, with hepcidin at 1.5 mg/kg, DFO at 400 mg/kg, or saline (control) with 10 mice per group. After 8 weeks consecutive treatment, mice were sacrificed and blood were collected by heart puncture. Serum samples were used for measurements of serum iron and transferrin saturation.

In the case of C[C@]12CC[C@@H]3c4ccc(O)cc4CC[C@H]3[C@@H]1CC[C@@H]2O [E2, 17β-estradiol], the cell proliferation [1] is reported as “did not increase”, the “osteoblast differentiation, as measured by alkaline phosphates activity” value ([2]; C2C12 cells) is reported as “slightly stimulated” and the VEGF formation ([3]; various concentrations) is reported as “some increase”.

In the case of “Asp-Thr-His-Phe-Pro-Ile-Cys-Ile-Phe-Cys-Cys-Gly-Cys-Cys-His-Arg-Ser-Lys-Cys-Gly-Met-Cys-Cys-Lys-Thr (DTHFPICIFCCGCCHRSKCGMCCKT; listed as Homo sapiens) [human hepcidin]”, the “fall in serum iron” value [4] is listed as 70%.

With “apo-transferrin: transferrin in its wholly unsaturated form, without iron in it” the VEGF formation ([3]; various concentrations) was “no effect”.

In the case of ferritin, the alkaline phosphatase production ([2]; C2C12 cells with BMP-2 at 50 ng/ml, DFO 10 μM, ferritin 20 ng/mL) is reported as “diminished”, the “CYP1B1 mRNA levels” value [5] is reported as “significantly increased” and the “CYP1A1 mRNA levels” value [6] is reported as “significantly increased”. The “CYP19A1 mRNA levels” value [7] was “not” and the VEGF formation ([3]; various concentrations) was “significantly decreases”.

For “hepcidin: peptide hormone, principal regulator of iron homeostasis; binds ferroportin (DTHFPICIFCCGCCHRSKCGMCCKT; listed as Homo sapiens)”, the “levels of serum iron” value [8] was “significantly lower” and the transferrin saturation [8] was “significantly lower”.

For “transferrin: iron transport protein with two binding sites for iron, tested at different iron saturation”, the VEGF formation ([3]; transferrin 5 μg/ml at various iron saturation levels) was “no effect”.
